For the assay, the target named is T1, F508delCFTR (Homo sapiens, UniProt P13569, DEL508-508).
T1 construct: expressed in transfected cells; host or cells: CFBE41o- human lung-derived epithelial cells (CFBE4lo-F508delCFTR-HRP), doxycycline-inducible
As to the kind of experiment: Cell Surface Expression-Horse Radish Peroxidase (CSE-HRP) Assay.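 For Maximum % activity (with co-corrector): co-corrector and positive control are both the same reference corrector at 2 µM.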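 For Maximum % activity (without co-corrector): percent of the 2 µM on-plate positive control corrector response above DMSO.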 To be noted: CSE-HRP; for Maximum % activity (with co-corrector): with co-corrector (2 μM); for Maximum % activity (with co-corrector) / Emax: maximum at any tested concentration, normalized to on-plate positive control; for Emax: without co-corrector, read-out: Maximum % activity (without co-corrector). The assay is classed as cell-based.

Setting [1] is: test compound without co-corrector, read-out: EC50 (without co-corrector).
Where [2] appears, read: with co-corrector (2 μM of 3-[(2R,4R)-4-({[1-(2,2-difluoro-1,3-benzodioxol-5-yl)cyclopropyl]carbonyl}amino)-7-methoxy-3,4-dihydro-2H-chromen-2-yl]benzoic acid), read-out: EC50 (with co-corrector).

Where two headings read alike, the source gives them in different places.

T1 sequence (P13569 with tags, fused parts or gaps DEL508-508): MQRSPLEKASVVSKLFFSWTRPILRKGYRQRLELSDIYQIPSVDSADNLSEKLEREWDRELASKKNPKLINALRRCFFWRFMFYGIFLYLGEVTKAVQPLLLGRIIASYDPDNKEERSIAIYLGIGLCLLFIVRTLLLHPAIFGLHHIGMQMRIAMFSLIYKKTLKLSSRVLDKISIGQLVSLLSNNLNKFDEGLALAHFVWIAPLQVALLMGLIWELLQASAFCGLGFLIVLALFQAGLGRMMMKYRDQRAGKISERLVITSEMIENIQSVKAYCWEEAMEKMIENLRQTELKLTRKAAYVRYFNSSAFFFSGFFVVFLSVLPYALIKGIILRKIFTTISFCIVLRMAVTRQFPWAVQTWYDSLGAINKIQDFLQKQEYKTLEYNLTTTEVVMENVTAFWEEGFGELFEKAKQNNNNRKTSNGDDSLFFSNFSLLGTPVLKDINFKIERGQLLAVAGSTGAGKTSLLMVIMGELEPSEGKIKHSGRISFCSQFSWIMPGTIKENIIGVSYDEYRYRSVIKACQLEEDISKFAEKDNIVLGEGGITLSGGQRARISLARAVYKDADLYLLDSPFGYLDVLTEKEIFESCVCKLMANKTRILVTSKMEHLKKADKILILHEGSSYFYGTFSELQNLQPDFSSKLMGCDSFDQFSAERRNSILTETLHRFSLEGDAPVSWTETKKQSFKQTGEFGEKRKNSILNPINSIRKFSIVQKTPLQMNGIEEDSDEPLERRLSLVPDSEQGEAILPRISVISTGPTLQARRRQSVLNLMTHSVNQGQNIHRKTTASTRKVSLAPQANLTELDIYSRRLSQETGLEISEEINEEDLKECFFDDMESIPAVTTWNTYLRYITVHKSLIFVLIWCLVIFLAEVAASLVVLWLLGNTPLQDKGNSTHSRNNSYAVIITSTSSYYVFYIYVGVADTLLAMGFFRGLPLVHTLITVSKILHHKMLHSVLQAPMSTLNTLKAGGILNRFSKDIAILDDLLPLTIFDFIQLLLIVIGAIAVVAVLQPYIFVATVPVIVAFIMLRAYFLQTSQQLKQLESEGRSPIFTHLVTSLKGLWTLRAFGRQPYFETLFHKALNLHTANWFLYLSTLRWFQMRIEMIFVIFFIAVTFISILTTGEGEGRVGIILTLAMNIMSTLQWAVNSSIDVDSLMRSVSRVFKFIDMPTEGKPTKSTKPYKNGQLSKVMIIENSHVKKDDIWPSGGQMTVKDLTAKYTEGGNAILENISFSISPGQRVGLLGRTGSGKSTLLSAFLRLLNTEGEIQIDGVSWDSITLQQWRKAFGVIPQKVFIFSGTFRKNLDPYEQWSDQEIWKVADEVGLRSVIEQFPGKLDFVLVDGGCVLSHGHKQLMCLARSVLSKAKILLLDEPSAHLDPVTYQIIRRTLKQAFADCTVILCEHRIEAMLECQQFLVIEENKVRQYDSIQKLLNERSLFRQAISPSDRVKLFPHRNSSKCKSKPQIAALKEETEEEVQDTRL

Broadly, the EC50 is the concentration at which the effect is half-maximal. For the molecule `CC(C)(C)[C@H]1[C@H](NCc2cccc(C(F)(F)F)c2)[C@H](c2ccccc2)N(C(=O)C2CCCCC2)[C@@H]1C(=O)O` [II-122], the “Maximum % activity (with co-corrector)” value was “++ (≥150 and <350)”; the Emax is < 100%. Under setting [1], the EC50 lay in the range of 1 to 10 µM. In addition, the EC50 under setting [2] was in the range of 1 to 10 µM.
In the case of `COc1cc(C)ccc1CN[C@H]1[C@H](C(C)(C)C)[C@@H](C(=O)O)N(C(=O)[C@@H]2CCCCO2)[C@H]1c1cccnc1OC` [II-123], the “Maximum % activity (with co-corrector)” value is “++ (≥150 and <350)”; the Emax was < 100%. Moreover, under setting [1], the concentration giving a half-maximal response (EC50) was in the range of 1 to 10 µM. The EC50 under setting [2] was 1 to 10 µM.
As to `COc1cc(C(C)(C)C)ccc1CN[C@H]1[C@H](C(C)(C)C)[C@@H](C(=O)O)N(C(=O)C2CCCCC2)[C@H]1c1ccccc1OC(F)F` [II-124], the “Maximum % activity (with co-corrector)” value is “+++ (≥350)” and the Emax is 100 to 200%. For the same molecule, the EC50 under setting [1] is < 1 µM. Also, the EC50 under setting [2] was < 1 µM.
With `COc1cc2c(cc1CN[C@H]1[C@H](C(C)(C)C)[C@@H](C(=O)O)N(C(=O)C3CCCCC3)[C@H]1c1ccccc1)CCCC2` [II-125], the “Maximum % activity (with co-corrector)” value is given as “+++ (≥350)” and the Emax was > 200%. Moreover, the EC50 under setting [1] lay within 1 to 10 µM. The concentration giving a half-maximal response (EC50) under setting [2] was < 1 µM.
On the same counts, the results for `CCOc1ccc(Br)cc1CN[C@H]1[C@H](C(C)(C)C)[C@@H](C(=O)O)N(C(=O)C2CCCCC2)[C@H]1c1ccccc1` [II-126] are “+++ (≥350)”, 100 to 200%, 1 to 10 µM and 1 to 10 µM.
As to `COc1ccc(CN[C@H]2[C@H](C(C)(C)C)[C@@H](C(=O)O)N(C(=O)C3CCCCC3)[C@H]2c2ccccc2)cc1C(F)(F)F` [II-127], the “Maximum % activity (with co-corrector)” value was “++ (≥150 and <350)”; the Emax is < 100%. The EC50 under setting [1] was 1 to 10 µM. Besides, under setting [2], the EC50 lay in the range of 1 to 10 µM.
As to `COc1cc(F)c(F)cc1CN[C@H]1[C@H](C(C)(C)C)[C@@H](C(=O)O)N(C(=O)C2CCCCC2)[C@H]1c1ccccc1` [II-128], the “Maximum % activity (with co-corrector)” value is on record as “+++ (≥350)” and the Emax fell in the range of 100 to 200%. Under setting [1], the EC50 lay in the range of 1 to 10 µM. Moreover, the EC50 under setting [2] fell in the range of 1 to 10 µM.
`CCOc1cc2c(cc1CN[C@H]1[C@H](C(C)(C)C)[C@@H](C(=O)O)N(C(=O)C3CCCCC3)[C@H]1c1ccccc1)CCC2` [II-129]: the “Maximum % activity (with co-corrector)” value is reported as “+++ (≥350)” and the Emax fell in the range of 100 to 200%. Moreover, the EC50 under setting [1] was in the range of 1 to 10 µM. For the same molecule, under setting [2], the EC50 was 1 to 10 µM.
In the case of `CC(C)(C)[C@H]1[C@H](NCc2ccc(F)c(Oc3ccccc3)c2)[C@H](c2ccccc2)N(C(=O)C2CCCCC2)[C@@H]1C(=O)O` [II-130], the “Maximum % activity (with co-corrector)” value is “++ (≥150 and <350)”; the Emax was < 100%. In addition, under setting [1], the EC50 fell in the range of 1 to 10 µM. Under setting [2], the EC50 was 1 to 10 µM.
Consider `Cc1ccc(CN[C@H]2[C@H](C(C)(C)C)[C@@H](C(=O)O)N(C(=O)C3CCCCC3)[C@H]2c2ccccc2)c(C)c1` [II-131], for which the “Maximum % activity (with co-corrector)” value is “++ (≥150 and <350)”; the Emax lay in the range of 100 to 200%. In addition, the EC50 under setting [1] lay in the range of 1 to 10 µM. For the same molecule, the EC50 under setting [2] lay in the range of 1 to 10 µM.
As for `Cc1cc(C)cc(CN[C@H]2[C@H](C(C)(C)C)[C@@H](C(=O)O)N(C(=O)C3CCCCC3)[C@H]2c2ccccc2)c1` [II-132], the “Maximum % activity (with co-corrector)” value is “+++ (≥350)” and the Emax was < 100%. Besides, the EC50 under setting [1] lay within 1 to 10 µM. In addition, the EC50 under setting [2] fell in the range of 1 to 10 µM.
Consider `CC(C)(C)c1cc(CN[C@H]2[C@H](C(C)(C)C)[C@@H](C(=O)O)N(C(=O)C3CCCCC3)[C@H]2c2ccccc2)cc(C(C)(C)C)c1` [II-133], for which the “Maximum % activity (with co-corrector)” value was “++ (≥150 and <350)”; the Emax is < 100%. Moreover, the EC50 under setting [1] lay within 1 to 10 µM. In addition, the EC50 under setting [2] was 1 to 10 µM.
`COc1cc(C(F)(F)F)ccc1CN[C@H]1[C@H](C(C)(C)C)[C@@H](C(=O)O)N(C(=O)OC(C)C)[C@H]1c1ccccc1OC` [II-134]: the “Maximum % activity (with co-corrector)” value was “+++ (≥350)” and the Emax is > 200%. Under setting [1], the EC50 is 1 to 10 µM. Further, under setting [2], the EC50 lay within 1 to 10 µM.
Regarding `COc1cc(C(C)(C)C)ccc1CN[C@H]1[C@H](C(C)(C)C)[C@@H](C(=O)O)N(C(=O)OC(C)C)[C@H]1c1ccccc1OC` [II-135], the “Maximum % activity (with co-corrector)” value was “+++ (≥350)” and the Emax fell in the range of 100 to 200%. Moreover, the EC50 under setting [1] is 1 to 10 µM. In addition, the EC50 under setting [2] fell in the range of 1 to 10 µM.
On to `COc1ccc(C(F)(F)F)cc1CN[C@H]1[C@H](C(C)(C)C)[C@@H](C(=O)O)N(C(=O)OC(C)C)[C@H]1c1ccccc1OC` [II-136], for which the “Maximum % activity (with co-corrector)” value was “+++ (≥350)” and the Emax lay within 100 to 200%. Also, the EC50 under setting [1] was in the range of 1 to 10 µM. Moreover, the EC50 under setting [2] was in the range of 1 to 10 µM.
In the case of `COc1ccc(Cl)cc1CN[C@H]1[C@H](C(C)(C)C)[C@@H](C(=O)O)N(C(=O)OC(C)C)[C@H]1c1ccccc1OC` [II-137], the “Maximum % activity (with co-corrector)” value is on record as “+++ (≥350)” and the Emax lay in the range of 100 to 200%. Under setting [1], the EC50 is 1 to 10 µM. For the same molecule, the EC50 under setting [2] lay within 1 to 10 µM.
For the molecule `COc1cc(C)ccc1CN[C@H]1[C@H](C(C)(C)C)[C@@H](C(=O)O)N(C(=O)C2CCCCC2)[C@H]1c1cccnc1OC` [II-138], the “Maximum % activity (with co-corrector)” value is on record as “+++ (≥350)” and the Emax fell in the range of 100 to 200%. For the same molecule, the EC50 under setting [1] was in the range of 1 to 10 µM. The EC50 under setting [2] lay within 1 to 10 µM.
Consider `CC(C)(C)[C@H]1[C@H](NCc2cc(Cl)ccc2OCC2CC2)[C@H](c2ccccc2)N(C(=O)C2CCCCC2)[C@@H]1C(=O)O` [II-139], for which the “Maximum % activity (with co-corrector)” value is “++ (≥150 and <350)”; the Emax was < 100%. The EC50 under setting [1] is 1 to 10 µM. Moreover, the EC50 under setting [2] lay in the range of 1 to 10 µM.
As for `COc1ccc(C(C)(C)C)cc1CN[C@H]1[C@H](C(C)(C)C)[C@@H](C(=O)O)N(C(=O)C2CCCCC2)[C@H]1c1ccccc1OC` [II-140], the “Maximum % activity (with co-corrector)” value is listed as “+++ (≥350)” and the Emax lay within 100 to 200%. Also, the EC50 under setting [1] lay within 1 to 10 µM. Besides, the EC50 under setting [2] was < 1 µM.
Consider `COc1cc(C(C)(C)C)ccc1CN[C@H]1[C@H](C(C)(C)C)[C@@H](C(=O)O)N(C(=O)C2CCCCC2)[C@H]1c1ccccc1OC` [II-141], for which the “Maximum % activity (with co-corrector)” value is on record as “+++ (≥350)” and the Emax lay in the range of 100 to 200%. Under setting [1], the EC50 fell in the range of 1 to 10 µM. In addition, the EC50 under setting [2] was < 1 µM.
Taken in the same sequence, the figures for `Cc1c(N[C@H]2[C@H](C(C)(C)C)[C@@H](C(=O)O)N(C(=O)C3CCCCC3)[C@H]2c2ccccc2)c(Cl)nc2ccc(F)cc12` [II-144] were “+++ (≥350)”, 100 to 200%, 1 to 10 µM and 1 to 10 µM.
On the same counts, the results for `CC(C)(C)[C@H]1[C@H](Nc2cc(C#N)cnc2Cl)[C@H](c2ccccc2)N(C(=O)C2CCCCC2)[C@@H]1C(=O)O` [II-145] are “+++ (≥350)”, 100 to 200%, 1 to 10 µM and 1 to 10 µM.
Taken in the same sequence, the figures for `Cc1ccc(C#N)c(N[C@H]2[C@H](C(C)(C)C)[C@@H](C(=O)O)N(C(=O)C3CCCCC3)[C@H]2c2ccccc2)n1` [II-146] were “+++ (≥350)”, < 100%, 1 to 10 µM and 1 to 10 µM.

Source of the values: patent US20180099931A1 (AbbVie S.à.r.l., priority 2016, published 2018).
